The inhibition in vivo is the percentage by which the read-out fell short of the control. What is called IC50 is the concentration needed to halve the response being measured.

The subject of the first test is adjuvant-induced arthritis. Briefly: Activity in preventing the development of adjuvant-induced arthritis in vivo. The conditions noted are these: dose: 10 mg/kg, oral once a day from day 0 to day 20; measured on day 21; Lewis rat. Here is the method: Activity in Preventing the Development of Adjuvant-Induced Arthritis In Vivo The test was performed according to the method described by Winder et al. (Arthritis Rheum., 12, 472-482, 1969). Heat-killed dried Mycobacterium butyricum (Difco Laboratories, Lot 679123) was ground on an agate mortar, and was then suspended in dry-sterilised liquid paraffin (first grade, Wako Pure Chemical Industries, Ltd.) to make a 2 mg/ml suspension. The resulting suspension was then sonicated and used as an adjuvant. Arthritis was induced by the intradermal injection of the adjuvant (100 μg of heat killed dried bacterium/0.05 ml of paraffin/paw) into the heel of the right hind paw of a Lewis rat (male, age 9 weeks, 190 g, Japan Charles River). The rats were assigned to groups of 5 animals each. […] The volumes of the right hind paw (adjuvant-injected paw) and left hind paw (non-injected paw) were measured on days 3, 5, 7, 10, 13, 15, 18 and 21 using a Plethysmometer™ (Ugo Basile), the hind paws being soaked from the toe to the hairline in the bath of the Plethysmometer™. The volumes of the swollen feet (adjuvant-injected right hind foot volume—non-injected left hind foot volume) were calculated. The percent inhibition of swelling of the injected foot of the treated animals as compared to that of the control animals on day 21 was calculated as follows. [formula]
On to `Fc1ccc(-c2[nH]nc(C3=C[C@@H]4C[C@@H](c5ccccc5)CN4CC3)c2-c2ccncc2)cc1` [Example 7, 5-(4-Fluorophenyl)-3-[(2S,8aS)-2-phenyl-1,2,3,5,6,8a-hexahydroindolizin-7-yl]-4-(pyridin-4-yl)pyrazole], for which the “Inhibition rate (%) of swelling of adjuvant-injected foot” value was 81%.

Take `Fc1ccc(-c2[nH]cc(C3=C[C@@H]4C[C@@H](c5ccccc5)CN4CC3)c2-c2ccncc2)cc1` [Example 2, 2-(4-Fluorophenyl)-4-[(2S,8aS)-2-phenyl-1,2,3,5,6,8a-hexahydroindolizin-7-yl]-3-(pyridin-4-yl)-1H-pyrrole]: the “Inhibition rate (%) of swelling of adjuvant-injected foot” value amounted to 84%.

Another test has as its system TNFα production. Briefly: Inhibition of the production of TNFα in vivo (lipopolysaccharide-injected mice). The settings on record: Mus musculus, oral, 30 minutes before lipopolysaccharide injection, plasma TNFα 1 hour after LPS, Balb/c mice, average vs control group, read-out: Inhibition Rate (%) of TNFα Production (in vivo). Here is the method:
Inhibition of the Production of TNFα In Vivo
This test was performed according to the method of Ochalaki et al. [S. J. Ochalaki, D. A. Hartman, M. T. Belfast, T. L. Walter, K. B. Glaser and R. P. Carlson; Inhibition of endotoxin-induced hypothermia and serum TNFα levels in CD-1 mice by various pharmacological agents: Agents Actions 39, C52-C54 (1998)].
The production of TNFα was induced in mice by intravenous injection of lipopolysaccharide (E. coli O26: B6 origin, Difco) which was prepared to a concentration of 0.045 mg/ml using physiological saline. The saline preparation of lipopolysaccharide was administered at the rate of 10 ml/1 kg of body weight into the caudal vein of Balb/c mice (males, age 5-7 weeks, body weight: approx. 22 g, Japan Charles River) which had been fasted overnight starting the day before the experiment. One hour after administration, the mice were laparotomized under ether anaesthesia and blood was collected from the abdominal vena cava. Blood collection was performed using a 1 ml volume disposable syringe equipped with a 23G needle which had been moistened with heparin on the inside wall. Following blood collection, the blood was immediately transferred to a 1.5 ml volume Eppendorf tube and centrifuged at 4° C. and 14,000 rpm to separate the plasma. This plasma was then stored at −20° C. until measurement of TNFα.
The measurement of the amount of TNFα was performed with a enzyme immunoassay (ELISA) kit (Mouse TNFα ELISA KIT, Genzyme).
To determine the inhibitory activity of the test compounds, each test compound was suspended in 0.5% tragacanth solution ad then administered orally to the mice at a rate of 10 ml/1 kg of body weight 30 minutes before injection of the lipopolysaccharide, and the average inhibition rates were calculated versus a control group.
In the case of `CCOc1ccc([C@@H]2C[C@H]3C=C(c4c[nH]c(-c5ccc(F)cc5)c4-c4ccncc4)CCN3C2)cc1` [Example 30, 4-[(2S,8aS)-2-(4-Ethoxyphenyl)-1,2,3,5,6,8a-hexahydroindolizin-7-yl]-2-(4-fluorophenyl)-3-(pyridin-4-yl)-1H-pyrrole], the inhibition in vivo at 5 mg/kg amounted to 90%.

In the case of `Cc1ccc([C@@H]2C[C@H]3C=C(c4c[nH]c(-c5ccc(F)c(F)c5)c4-c4ccncc4)CCN3C2)cc1C` [Example 41, 2-(3,4-Difluorophenyl)-4-[(2S,8aS)-2-(3,4-dimethylphenyl)-1,2,3,5,6,8a-hexahydroindolizin-7-yl]-3-(pyridin-4-yl)-1H-pyrrole], the inhibition in vivo at 5 mg/kg turned out to be 91%.

As to `C1=C(c2c[nH]c(-c3ccccc3)c2-c2ccncc2)CCN2C[C@H](c3ccccc3)C[C@@H]12` [Example 25, 2-Phenyl-4-[(2S,8aS)-2-phenyl-1,2,3,5,6,8a-hexahydroindolizin-7-yl]-3-(pyridin-4-yl)-1H-pyrrole], the inhibition in vivo at 5 mg/kg stood at 92%.

Regarding `COc1cccc([C@@H]2C[C@H]3C=C(c4c[nH]c(-c5ccc(F)c(F)c5)c4-c4ccncc4)CCN3C2)c1` [Example 31, 2-(3,4-Difluorophenyl)-4-[(2S,8aS)-2-(3-methoxyphenyl)-1,2,3,5,6,8a-hexahydroindolizin-7-yl]-3-(pyridin-4-yl)-1H-pyrrole], the inhibition in vivo at 5 mg/kg stood at 92%.

Regarding `Clc1cccc(-c2[nH]cc(C3=C[C@@H]4C[C@@H](c5ccccc5)CN4CC3)c2-c2ccncc2)c1` [Example 10, 2-(3-Chlorophenyl)-4-[(2S,8aS)-2-phenyl-1,2,3,5,6,8a-hexahydroindolizin-7-yl]-3-(pyridin-4-yl)-1H-pyrrole], the inhibition in vivo at 5 mg/kg amounted to 91%.

In the case of `Fc1ccc(-c2[nH]cc(C3=C[C@@H]4C[C@@H](c5ccccc5)CN4CC3)c2-c2ccncc2)cc1Cl` [Example 46, 2-(3-Chloro-4-fluorophenyl)-4-[(2S,8aS)-2-phenyl-1,2,3,5,6,8a-hexahydroindolizin-7-yl]-3-(pyridin-4-yl)-1H-pyrrole], the inhibition in vivo at 5 mg/kg amounted to 93%.

In the case of `COc1ccc([C@@H]2C[C@H]3C=C(c4c[nH]c(-c5cccc(Cl)c5)c4-c4ccncc4)CCN3C2)cc1` [Example 23, 2-(3-Chlorophenyl)-4-[(2S,8aS)-2-(4-methoxyphenyl)-1,2,3,5,6,8a-hexahydroindolizin-7-yl]-3-(pyridin-4-yl)-1H-pyrrole], the inhibition in vivo at 5 mg/kg turned out to be 90%.

As to `COc1ccc([C@@H]2C[C@H]3C=C(c4c[nH]c(-c5ccc(F)cc5)c4-c4ccncc4)CCN3C2)cc1` [Example 16, 2-(4-Fluorophenyl)-4-[(2S,8aS)-2-(4-methoxyphenyl)-1,2,3,5,6,8a-hexahydroindolizin-7-yl]-3-(pyridin-4-yl)-1H-pyrrole], the inhibition in vivo at 5 mg/kg was 90%.

On to `Fc1ccc(-c2[nH]cc(C3=C[C@@H]4C[C@@H](c5ccccc5)CN4CC3)c2-c2ccncc2)cc1F` [Example 8, 2-(3,4-Difluorophenyl)-4-[(2S,8aS)-2-phenyl-1,2,3,5,6,8a-hexahydroindolizin-7-yl]-3-(pyridin-4-yl)-1H-pyrrole], for which the inhibition in vivo at 5 mg/kg came out at 91%.

In the next test the test system is TNFα production. Put plainly: Inhibition of the production of TNFα in vitro in human whole blood. The class given is cell-based. The settings on record: lipopolysaccharide 10 μg/ml, 6 hours at 37° C., ELISA of plasma, read-out: Inhibitory Effect on TNFα Production (in vitro) IC50. Here is the method: Inhibition of the Production of the Cytokines IL-1β and TNFα In Vitro in Human Whole Blood
This test was performed according to the method of Hartman, et al. [D. A. Hartman, S. J. Ochalski and R. P. Carlson; The effects of anti-inflammatory and antiallergic drugs on cytokine release after stimulation of human whole blood by lipopolysaccharide and zymosan A: Inflamm. Res., 44, 269 (1995)].
Peripheral blood samples were collected in the presence of heparin from healthy adult volunteers. 1000 μl of whole blood was added to an Eppendorf tube to which 2 μl of a dimethyl sulfoxide solution of the test compound had been previously added, after which 10 μl of lipopolysaccharide (E. coli O26: B6 origin, Difco) was added as a stimulant (final concentration of said lipopolysaccharide: 10 μg/ml). This was thoroughly mixed and then incubated for 6 hours at 37° C. in the presence of 5% CO2. At the end of the incubation, the mixture was cooled to 4° C. to stop the reaction, followed immediately by centrifuging for 5 minutes at 14,000 rpm to separate and collect the supernatant plasma. The IL-1β and TNFα produced and released into the plasma were measured using a commercially available enzyme immunoassay (ELISA) kits [Cayman and Genzyme]. The inhibitory effect [IC50 (μM)] on the production of cytokines was determined by the method of least squares from the amounts of the cytokines produced in the presence and absence of the test compound.
For orientation: In an ELISA, binding on a coated surface is turned into a signal by an enzyme label.
On to `Fc1ccc(-c2[nH]cc(C3=C[C@@H]4C[C@H](c5ccc(F)cc5)CN4CC3)c2-c2ccncc2)cc1` [Example 3, 2-(4-Fluorophenyl)-4-[(2R,8aS)-2-(4-fluorophenyl)-1,2,3,5,6,8a-hexahydroindolizin-7-yl]-3-(pyridin-4-yl)-1H-pyrrole], for which the concentration for half-maximal inhibition (IC50) was 5.1 nM.

Take `Clc1cccc(-c2[nH]cc(C3=C[C@@H]4C[C@@H](c5ccccc5)CN4CC3)c2-c2ccncc2)c1` [Example 10, 2-(3-Chlorophenyl)-4-[(2S,8aS)-2-phenyl-1,2,3,5,6,8a-hexahydroindolizin-7-yl]-3-(pyridin-4-yl)-1H-pyrrole]: the IC50 was found to be 7.3 nM.

On to `CCC[C@H]1C[C@H]2C=C(c3n[nH]c(-c4ccc(F)cc4)c3-c3ccncc3)CCN2C1` [Example 6, 5-(4-Fluorophenyl)-3-[(2S,8aS)-2-propyl-1,2,3,5,6,8a-hexahydroindolizin-7-yl]-4-(pyridin-4-yl)-pyrazole], for which the IC50 stood at 6.3 nM.

Regarding `Fc1ccc(-c2[nH]cc(C3=C[C@@H]4C[C@@H](c5ccccc5)CN4CC3)c2-c2ccncc2)cc1Cl` [Example 46, 2-(3-Chloro-4-fluorophenyl)-4-[(2S,8aS)-2-phenyl-1,2,3,5,6,8a-hexahydroindolizin-7-yl]-3-(pyridin-4-yl)-1H-pyrrole], the IC50 was found to be 2.1 nM.

Regarding `Cc1ccc([C@@H]2C[C@H]3C=C(c4c[nH]c(-c5ccc(F)c(F)c5)c4-c4ccncc4)CCN3C2)cc1` [Example 12, 2-(3,4-Difluorophenyl)-4-[(2S,8aS)-2-(4-methylphenyl)-1,2,3,5,6,8a-hexahydroindolizin-7-yl]-3-(pyridin-4-yl)-1H-pyrrole], the IC50 was found to be 5.5 nM.

As to `COc1ccc([C@@H]2C[C@H]3C=C(c4c[nH]c(-c5ccc(F)cc5)c4-c4ccncc4)CCN3C2)cc1` [Example 16, 2-(4-Fluorophenyl)-4-[(2S,8aS)-2-(4-methoxyphenyl)-1,2,3,5,6,8a-hexahydroindolizin-7-yl]-3-(pyridin-4-yl)-1H-pyrrole], the IC50 was found to be 5.4 nM.

For the compound `Cc1ccc([C@H]2C[C@H]3C=C(c4c[nH]c(-c5ccc(F)cc5)c4-c4ccncc4)CCN3C2)cc1` [Example 4, 2-(4-Fluorophenyl)-4-[(2R,8aS)-2-(4-methylphenyl)-1,2,3,5,6,8a-hexahydroindolizin-7-yl]-3-(pyridin-4-yl)-1H-pyrrole], the half-inhibitory concentration (IC50) is 7.8 nM.

Source of the values: patent publication US20050159444A1, “Bicyclic unsaturated tertiary amine compounds” (SANKYO COMPANY, LIMITED, priority 2002, published 2005).
